Source: paper PMC6123788, “Down-regulation of cathepsin S and matrix metalloproteinase-9 via Src, a non-receptor tyrosine kinase, suppresses triple-negative breast cancer growth and metastasis” (Experimental & Molecular Medicine, 2018)
Blank lines part the entries; values can stand above or below the compound they belong to.

Assays:
Type in all cases: biochemical
Src [1] = target: T1, Src (Homo sapiens, UniProt P12931); assay: CycLex c-Src kinase assay (IC90)
T1 construct: recombinant catalytic domain of c-Src
T1 sequence (P12931 254-536 limits assumed): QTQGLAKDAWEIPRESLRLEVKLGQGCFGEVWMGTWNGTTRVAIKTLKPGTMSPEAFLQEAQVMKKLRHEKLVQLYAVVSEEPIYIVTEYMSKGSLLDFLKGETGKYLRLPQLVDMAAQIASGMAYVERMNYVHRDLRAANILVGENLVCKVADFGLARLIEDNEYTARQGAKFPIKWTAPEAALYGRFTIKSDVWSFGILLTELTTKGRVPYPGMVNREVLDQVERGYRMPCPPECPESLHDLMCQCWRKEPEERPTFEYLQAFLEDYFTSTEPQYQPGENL

Src [2] = target: T1, Src; assay: CycLex c-Src kinase assay (IC90); supported by DARTS in MDA-MB-231 lysate
CTSS [3] = target: T2, CTSS (Homo sapiens, UniProt P25774); assay: fluorometric CTSS screening kit (BioVision K149), AFC substrate
T2 sequence (P25774 115-331): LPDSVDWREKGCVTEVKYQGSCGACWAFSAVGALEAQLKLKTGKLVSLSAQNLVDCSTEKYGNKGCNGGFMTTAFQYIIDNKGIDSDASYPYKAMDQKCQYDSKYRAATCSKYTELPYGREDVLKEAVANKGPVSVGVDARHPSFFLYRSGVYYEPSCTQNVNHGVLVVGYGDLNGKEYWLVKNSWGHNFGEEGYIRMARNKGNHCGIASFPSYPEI

CTSS [4] = target: T2, CTSS; assay: fluorometric CTSS screening kit (BioVision K149), positive control
CTSS [5] = target: T2, CTSS; assay: fluorometric CTSS screening kit (BioVision K149), AFC substrate; remark: listed apart in the source

- IC90 (Src [1]): 27.3 µM
Structure (SMILES): COc1ccc(Cl)c(Nc2ncnc3cc(OCC4CCN(C)CC4)c(OC)cc23)c1 [AZM-475271]

- IC90 (Src [2]): 3.2 µM
- IC50 (CTSS [3]): 5.1 µM
Structure (SMILES): Cc1nc2c(c(C)c1O)CC(=O)N2 [BJ-2302]

- IC50 (CTSS [4]): 0.00019 µM
Structure (SMILES): CC(C)C[C@H](NC(=O)[C@H](Cc1ccccc1)NC(=O)OCc1ccccc1)C(=O)C=O [Z-FL-COCHO]

Structure (SMILES): Cc1nc2[nH]c(=O)[nH]c2c(C)c1O [BJ-2304]
- fluorometric CTSS screening kit (BioVision K149), AFC substrate (CTSS [5]): BJ-2302 exhibited the strongest suppression of CTSS activity (Fig. 3b), followed by BJ-2304
